Measurements: US20260242390A1, “TOTAL SYNTHESES OF PORTIMINE A AND ANALOGUES THEREOF AS SMALL MOLECULE MODULATORS OF NMD3” (priority 2023, published 2026)

How the values were obtained:
[1] = test system: human T-cell acute lymphoblastic leukaemia (T-ALL) cell lines; conditions: cited from earlier work
[2] = test system: normal murine haematopoietic cells; conditions: cited from earlier work
[3] = test system: Jurkat cells; experiment: Initial SAR: activity of PAL functionalized PTMA analogs; type: cell-based, human; conditions: in the concentrate range
From the text: FIG. 3. Initial SAR studies: Assessing activity of PAL functionalized PTMA analogs. […] (A) PA and Ph-PA show less toxic to healthy PBMCs compared to Jurkat cells. […] (B) Immunoblot of caspase-3 in Jurkat and PBMCs with indicated conditions.
• 1) Portimine A and its functional analogs show stereo-selective acute toxicity in cancer cells (FIG. 1). […] (B) Structure of portimine related analogs: phenyl-portimine A (Ph-PA, 36) and epi-portimine A (ePA, 38). Structure of fully functionalized portimine A-based epimeric probe pair: portimine A-diazirine-alkyne (PA-DA, 35-2) and epi-portimine A-diazirine-alkyne (ePA-DA, 35-1). (C) Cell viability analysis of portimine A and analogs. Jurkat cells were treated with increasing concentrations of portimine A and analogs for 24 hours. All presented data as mean of biological replicated experiments (n=3). […] Jurkat cells were treated with portimine A or analogs for 12 hours at 10 nM. […] Structurally related negative control ePA and PB are non-toxic in all cell types in the current concentrate range. PBMCs (25k per well), Jurkat (10k per well). […] Cell cycle analysis in Jurkat cells (FIG. 2). Jurkat cells were treated with 10 nM of indicated compounds for 24 hours, and propodium iodide was used to identify different stages of cells by flow cytometry. […] (A) PA and Ph-PA show less toxic to healthy PBMCs compared to Jurkat cells. […] (B) Immunoblot of caspase-3 in Jurkat and PBMCs with indicated conditions. […] (A) Pharmacokinetic studies of mouse intraperitoneal (i.p.) and oral (p.o.) administration for portimine (n=3). […] Impact of PA [0.3 or 1 mg/kg intraperitoneally] on MC38 tumor growth in WT mice (n=6). (C) Kaplan-Myer survival curve of WT MC38 tumor-bearing mice (n=6) after treatment with PA as described in (D). Mice were euthanized when tumor area exceeded 2000 mm^3. Statistical analysis was performed using ANOVA analysis followed by multiple comparisons test, * p≤0.05. Treatment condition: Jurkat (60 M per condition); PA-DA/ePA-DA concentration: 0.5 uM, PA or ePA: 5 uM; Incubate with probe with or without competitors (PA, ePA) for 30 min; UV irradiated for 20 min. (0.5 uM PA-DA add a no-UV condition), Standard pulldown & biotin-enrichment and western blot analysis (Elute condition: 2× sample buffer+500 uM biotin, boil for 20 mins); Primary antibody NMD3 (ProteinTech, 1:150), Actin (BioRad, 1:10000). […] Cell lysates were fractionated by sucrose gradient (5-50%) and each fraction were analyzed by western blot. eIF6 levels increase in 60S subunit fraction and decrease in ribosome-free fractions after PA treatment. […]

Row | Structure (SMILES) | apoptosis in a panel of 14 human T-ALL cell lines [1] | toxicity to normal murine haematopoietic cells [2] | activity of PAL functionalized PTMA analogs [3]
1 | O=C(/C=C\n1cnc(-c2cc(C(F)(F)F)cc(C(F)(F)F)c2)n1)NNc1cnccn1 [KPT-330] | induced rapid apoptosis at low nanomolar concentrations | little toxicity | 
2 | CC(=O)O[C@@H]1CC(C)[C@@H]2CC[C@@]3(C[C@@H](O)C4=NCC[C@@]45CCC(c4ccc(C(=O)NCCC6(CCC#N)N=N6)cc4)=C[C@@H]5[C@H](O3)C1=O)O2 (stereo partly drawn) [epi-PTMA-Ac-DA] |  |  | no activity
